Measurements taken from PMC3991570, “A Novel Highly Potent Autotaxin/ENPP2 Inhibitor Produces Prolonged Decreases in Plasma Lysophosphatidic Acid Formation In Vivo and Regulates Urethral Tension” (PLoS ONE, 2014).
Structures can show the parent of a compound that is named as a salt.

Experiments:
[1] = molecular target: T1, recombinant human ATX/ENPP2 (Homo sapiens, UniProt Q13822); assay: FS-3 assay of LysoPLD activity (2 h); format: biochemical; conditions: synthetic fluorescent substrate FS-3, 2 h; read-out: In vitro IC50, Recombinant human ATX/ENPP2, FS-3 (2 h)
T1 construct: (His)6 (C); made in house; host or cells: baculovirus AcNPV; virus made in Sf9, protein expressed in expresSF+ insect cells, from culture supernatant
Method: Recombinant ATX/ENPP2 protein (2 µg/ml) and various concentrations of the inhibitors were mixed and incubated at 37°C for 2 h in 100 mM Tris-HCl buffer (pH 8.0) containing 1%DMSO, 500 mM NaCl, 5 mM MgCl2, and 0.05% Triton X-100, in the presence of a fluorescent substrate FS-3 (1 µM). After incubation, fluorescence at 520 nm with excitation at 494 nm was measured.
(§1) Measurement points of choline production were plotted against the concentration of the inhibitor and the theoretical curve to obtain the IC50 value of the inhibitor for LysoPLD activity was obtained using the Activity Base version 7.1.0.39 software from ID Business Solutions Ltd.

[2] = molecular target: T1, recombinant human ATX/ENPP2; assay: Choline release assay, 16:0-LPC substrate, 30 min incubation; format: biochemical; conditions: read-out: In vitro IC50, Recombinant human ATX/ENPP2, Choline (30 min)
Method: In the choline release assay, a series of reaction mixtures containing different concentrations of the inhibitors were tested in parallel. Recombinant ATX/ENPP2 was dissolved in 100 mM Tris-HCl buffer (pH 9.0) containing 500 mM NaCl, 5 mM MgCl2 and 0.05% Triton X-100. First, the aqueous solution of recombinant ATX/ENPP2 (final concentration 2 µg/ml) was added to the reaction mixture containing different concentrations of the inhibitors, 1 mM 16:0-LPC, and DMSO 1%. Then, each mixture was incubated at 37°C for 30 min (primary reaction). A samples of each reaction mixture was subjected to the secondary incubation at 37°C for 30 min with 10 times the volume of 100 µM Amplex Red in 50 mM Tris-HCl buffer (pH 8.0), 1 U/ml horseradish peroxidase, 150 mU/ml choline oxidase and 5 mM CaCl2,. Fluorescence at 590 nm was measured with excitation at 544 nm and the amount of choline released in each reaction mixture was quantified based on a calibration curve created from a choline chloride standard.
as §1

[3] = molecular target: T1, recombinant human ATX/ENPP2; assay: Choline release assay, 16:0-LPC substrate, overnight (15 h) incubation; format: biochemical; conditions: about 15 h incubation, read-out: In vitro IC50, Recombinant human ATX/ENPP2, Choline (O/N)
Method: A series of reaction mixtures containing different concentrations of the inhibitors were also tested in parallel using an overnight incubation. First, the aqueous solution of recombinant ATX/ENPP2 (final concentration 2 µg/ml) or plasma samples from various animal species (final concentration 40%) was added to the reaction mixture containing different concentrations of ATX/ENPP2 inhibitors, 1 mM 16:0-LPC, and 1% DMSO. Then, each mixture was incubated at 37°C for 15 h (primary reaction). Samples of each mixture were subjected to the secondary reaction with 10 volumes of 300 µM TOOS in 100 mM Tris-HCl solution (pH 8.5), 500 µM 4-aminoantipyrine, 600 mU/ml horseradish peroxidase, 3 U/ml choline oxidase, and 5 mM CaCl2, at 37°C for 20 min (secondary reaction). […] Measurement points of choline production were plotted against the concentration of the inhibitor and the theoretical curve to obtain the IC50 value of the inhibitor for LysoPLD activity was obtained using the Activity Base version 7.1.0.39 software from ID Business Solutions Ltd.

plasma LPA = test system: plasma LPA; set-up: method as in PMID 20392816; conditions: at 24 h after administration; cited from earlier work
[4] = test system: urethane-anesthetized rats; assay: Intraurethral pressure (IUP) in urethane-anesthetized rats; format: in vivo, rat
Method: Male Crl∶CD(SD) rats (7–8 weeks old) were anesthetized by intraperitoneal administration of urethane at a dose of 1.5 g/5 ml/kg. An arterial catheter (JMS cut-down tube; C3, JMS, Japan) was inserted into the common carotid artery to monitor blood pressure. After the abdomen was opened, another catheter (inner diameter, 0.9 mm; outer diameter, 1.5 mm; Shin-Etsu Polymer, Japan) was inserted into the duodenum and held in place with a suture thread. The abdomen was then cut along the median line and the urethra was ligated in the proximity of the pubic bone. For measurement of intraurethral pressure (IUP), a urethral catheter (JMS cut-down tube; C3, JMS Inc., Japan) was inserted from the top side of the bladder through the urethra and held in place by ligation at the bladder neck. Finally, both the arterial catheter and urethral catheter were connected to a pressure transducer (Nihon Kohden, Japan), and the rat was placed on a warm mat (37°C). Blood pressure and IUP were measured by a recorder (Graphtec, Japan) using a torsion-pressure amplifier (Nihon Kohden, Japan).
ONO-8430506 was dissolved in an aqueous solution containing 1.1 times the equivalent amount of NaOH. After confirming stabilization of IUP, rats received either the inhibitor or tamsulosin at a dose of 2 ml/kg in an aqueous solution through the duodenal catheter. IUP and blood pressure were measured continuously during the 20-min after administration of either the inhibitor or tamsulosin. At the end of the 20-min period, heparinized blood was collected from the jugular vein of the rat to prepare a plasma sample. Rats were then euthanized by intravenous administration of 1 ml of pentobarbital (Somunopentyl, Kyoritsu Seiyaku Corporation). Postmortem IUP was measured until the lowest IUP value was reached and stabilized. The maximum percent decreases relative to the difference between baseline IUP and postmortem IUP was calculated to measure the change from baseline in IUP during the 20-min after drug administration.

[5] = test system: urethane-anesthetized rats; assay: Mean blood pressure in urethane-anesthetized rats; format: in vivo, rat; conditions: intraduodenal, up to 3 mg/kg (tamsulosin at the same dose range)
Method: Male Crl∶CD(SD) rats (7–8 weeks old) were anesthetized by intraperitoneal administration of urethane at a dose of 1.5 g/5 ml/kg. An arterial catheter (JMS cut-down tube; C3, JMS, Japan) was inserted into the common carotid artery to monitor blood pressure. After the abdomen was opened, another catheter (inner diameter, 0.9 mm; outer diameter, 1.5 mm; Shin-Etsu Polymer, Japan) was inserted into the duodenum and held in place with a suture thread. The abdomen was then cut along the median line and the urethra was ligated in the proximity of the pubic bone. […] Blood pressure and IUP were measured by a recorder (Graphtec, Japan) using a torsion-pressure amplifier (Nihon Kohden, Japan).
ONO-8430506 was dissolved in an aqueous solution containing 1.1 times the equivalent amount of NaOH. […] IUP and blood pressure were measured continuously during the 20-min after administration of either the inhibitor or tamsulosin. […] Postmortem IUP was measured until the lowest IUP value was reached and stabilized. The maximum percent decreases relative to the difference between baseline IUP and postmortem IUP was calculated to measure the change from baseline in IUP during the 20-min after drug administration.

isolated rat urethra = assay: Contraction of isolated rat urethra (Magnus apparatus); conditions: 100 nM to 30 µM added cumulatively
Method: Krebs-Henseleit buffer (112 mM NaCl, 5.9 mM KCl, 2.0 mM CaCl2, 1.2 mM MgCl2, 1.2 mM NaH2PO4, 25.0 mM NaHCO3 and 11.5 mM glucose) was prepared and aerated with 95%O2+5%CO2. 8-week old male CD (SD) IGS rats (Charles River Laboratories Japan, Inc.) were decapitated and exsanguinated. The urethra was excised and immediately immersed in ice-cooled Krebs-Henseleit buffer. The excised urethra was cut open and flattened using ophthalmologic scissors. The opened and flattened urethra was cut along the circular muscle into ‘ring-shaped’ strips 2–3 mm in width×3–4 mm in length using a razor. One ‘ring-shaped’ urethral specimen was prepared for each male rat.
Each prepared urethral specimen was hung inside a 5-ml Magnus tube filled with Krebs-Henseleit buffer (30°C). A resting tension of approximately 0.5 g was applied to the specimen for 60 min until it was stabilized. Thereafter, contraction motions of the specimen were recorded on a linear recorder (Model WR3320, Graphtec Corp.) after being amplified by a torsion-pressure amplifier (Models AP-641G and AP-601G, Nihon Kohden Corporation) and a force displacement pick-up transducer (Model TB-611T, Nihon Kohden Corporation). […] Phenylephrine (10 nM to 1 mM, Sigma-Aldrich) or 18:3-LPA (100 nM to 30 µM) was cumulatively added to the medium and the contractile force of each urethral specimen was measured.

Work on O=C1S/C(=C\c2ccc(OCc3cccc(B(O)O)c3)cc2)C(=O)N1Cc1ccc(F)cc1 [HA130] yielded an IC50 [1] of 120 nM, an IC50 [2] of 43 nM and an IC50 [3] of 580 nM.
In the case of O=C(CCN1CCN(C(=O)OCc2cc(Cl)cc(Cl)c2)CC1)c1ccc2[nH]c(=O)oc2c1 [PF-8380], the “plasma LPA level after oral administration” value (plasma LPA) is given as “returned to the normal baseline level”.
In the case of CCCCCCCCCCCCCC(=O)Nc1ccc(CP(=O)(O)O)cc1 [S32826], the IC50 [1] is reported as 17 nM, the IC50 [2] is reported as 66 nM and the IC50 [3] is reported as greater than 10000 nM.
With CCOc1ccccc1OCCN[C@H](C)Cc1ccc(OC)c(S(N)(=O)=O)c1 [tamsulosin, tamsulosin hydrochloride] the “decrease in IUP” value ([4]; 0.3 mg/kg intraduodenal, maximum percent decrease during 20 min) was 28%, the “dose of maximum effect on IUP” value ([4]; intraduodenal) was 0.3 mg/kg and the “doses at which IUP decreased” value ([4]; intraduodenal) was “higher than 0.03 mg/kg”. The “effect on mean blood pressure (MBP)” value [5] was “drastically decreased”.
In the case of “linolenoyl-lysophosphatidic acid [18:3-LPA]”, the “contractile effect in isolated rat urethra” value (isolated rat urethra) is reported as “comparable to phenylephrine”.
